Values quoted from earlier work in publication PMC3918245 (ChemMedChem, 2013).

System: deep-pocket MMPs
Details: semi-selective inhibition; specific inhibitors of MMP-8 and MMP-12

For O=C(NCc1ccc(-c2ccccc2)cc1)c1cccc(=O)n1O [1,2-HOPO-2], which “IC50 against deep-pocket MMPs” value is on record?
The value was “low nanomolar range”.
